This is an account of results in ChEMBL document CHEMBL1201862, “PubChem BioAssay data set” (2004).

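Where inhibition never reached the appropriate level, the endpoint shown equals the highest concentration tested. Otherwise, values were interpolated linearly from a five-concentration, 48-hour dose response in 96-well plates. GI50 is the concentration that inhibits growth by half.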 Calls of active or inactive are those of the source. No stated cut-off is given here; in the data, active = GI50 up to about 1.1 µM and inactive = higher. A value given as a limit tells only on which side of the number the result lay.

Some test systems named below: BT-549; EKVX; HCT-116; HCT-15; LOX IMVI; MCF7; MDA-MB-231; MDA-MB-435; OVCAR-8; PC-3; RPMI-8226; SF-268; SK-MEL-5; SN12C; SNB-19; SR; T47D; TK-10; U-251; UACC-257.
Common to all, as to assay: NCI anticancer screen, dose series, 48 h

Consider `CN(C)C(=S)/N=c1\ssc(=S)n1Cc1ccccc1`, for which the GI50 in the experiment on BT-549 is > 100 µM (inactive); in the experiment with EKVX it was 2.15 µM (inactive); in the experiment on HCT-116 it was 0.344 µM (active); with HCT-15, 0.237 µM; in the experiment with LOX IMVI, 0.455 µM (active); with MCF7 it was 0.82 µM (active). Besides, the GI50 is 0.631 µM (active) in the experiment on MDA-MB-231; 0.0337 µM (active) in the experiment with MDA-MB-435; 0.51 µM (active) in the experiment on OVCAR-8; 0.249 µM (active) in the experiment on PC-3; 0.785 µM (active) in the experiment with RPMI-8226; 1.82 µM (inactive) in the experiment with SF-268. In addition, the GI50 is 0.217 µM (active) with SK-MEL-5; 0.867 µM (active) in the experiment on SN12C; 1.08 µM (active) with SNB-19; 0.129 µM (active) in the experiment on SR; 6.31 µM (inactive) with T47D; 1.45 µM (inactive) in the experiment with TK-10. The GI50 with U-251 was 0.419 µM (active); in the experiment on UACC-257, 0.43 µM (active).

Regarding `Nc1nc(S)c2c(N)n[nH]c2c1C(=O)Nc1ccccc1`, the GI50 with BT-549 is > 100 µM (inactive); with EKVX it was 26.5 µM (inactive); with HCT-116, > 100 µM (inactive); in the experiment on HCT-15, > 100 µM; in the experiment on LOX IMVI, > 100 µM (inactive); in the experiment on MCF7, > 100 µM (inactive). For the same molecule, the GI50 in the experiment with MDA-MB-231 was > 100 µM (inactive); in the experiment on MDA-MB-435, 42 µM (inactive); in the experiment on OVCAR-8 it was > 100 µM (inactive); in the experiment on PC-3 it was > 100 µM (inactive); in the experiment with RPMI-8226 it was > 100 µM (inactive); in the experiment with SF-268, > 100 µM (inactive). Besides, the GI50 is > 100 µM (inactive) with SK-MEL-5; > 100 µM (inactive) with SN12C; > 100 µM (inactive) with SNB-19; 13.9 µM (inactive) in the experiment on SR; > 100 µM (inactive) in the experiment with T47D; > 100 µM (inactive) in the experiment on TK-10. Further, the GI50 in the experiment with U-251 and in the experiment on UACC-257 was > 100 µM (inactive) each time.

With `COc1ccc(-c2c3c(cc4cc5c(cc24)OCO5)C(=O)OC3)cc1OC`, the GI50 with BT-549 is 0.51 µM (active); with EKVX, 1.96 µM (inactive); in the experiment with HCT-116, 0.466 µM (active); in the experiment with HCT-15, 0.635 µM; in the experiment with LOX IMVI, 0.0164 µM (active); with MCF7, 4.13 µM (inactive). The GI50 in the experiment on MDA-MB-231 was 3.02 µM (inactive); in the experiment on MDA-MB-435, 2.43 µM (inactive); with OVCAR-8, 0.24 µM (active); in the experiment on PC-3 it was 4.01 µM (inactive); with RPMI-8226, 0.0447 µM (active); with SF-268 it was 5.85 µM (inactive). The GI50 in the experiment with SK-MEL-5 is 0.119 µM (active); in the experiment with SN12C, 0.488 µM (active); with SNB-19, 16.1 µM (inactive); with SR, 0.0299 µM (active); in the experiment with T47D, 0.386 µM (active); in the experiment with TK-10, 42.2 µM (inactive). Also, the figures for the GI50 in the experiment on U-251 and in the experiment with UACC-257 were 4.67 µM (inactive) and 2.07 µM (inactive), respectively.

In the case of `N#Cc1c(-c2ccccc2)cc(Nc2ccc(F)cc2)n2c1nc1ccccc12`, the GI50 was 3.24 µM (inactive) in the experiment with BT-549; 2.09 µM (inactive) in the experiment on EKVX; 1.83 µM (inactive) in the experiment with HCT-116; 3.26 µM with HCT-15; 3.33 µM (inactive) with LOX IMVI; 2.18 µM (inactive) in the experiment with MCF7. Moreover, the GI50 in the experiment on MDA-MB-231 is 3.83 µM (inactive); with MDA-MB-435, 3.11 µM (inactive); in the experiment on OVCAR-8 it was 3.12 µM (inactive); in the experiment on PC-3, 1.83 µM (inactive); in the experiment on RPMI-8226, 3.56 µM (inactive); with SF-268, 3.72 µM (inactive). Besides, the GI50 in the experiment with SK-MEL-5 was 1.24 µM (inactive); with SN12C it was 2.02 µM (inactive); with SNB-19, 3.14 µM (inactive); in the experiment with SR, 3.89 µM (inactive); in the experiment on T47D, 1.88 µM (inactive); in the experiment with TK-10 it was 3.55 µM (inactive). Also, the GI50 in the experiment on U-251 is 2.06 µM (inactive); with UACC-257 it was 2.54 µM (inactive).

With `CCC1(CC)C(=O)N(C(=O)c2ccc(C)cc2)N(C(=O)c2ccc(C)cc2)C1=O`, the GI50 in the experiment with BT-549 was > 75 µM (inactive); in the experiment with EKVX, 48.6 µM (inactive); in the experiment on HCT-116, 32.2 µM (inactive); in the experiment with HCT-15, 32 µM; in the experiment with LOX IMVI it was 33.2 µM (inactive); in the experiment with MCF7, 45.5 µM (inactive). Besides, the GI50 in the experiment on MDA-MB-231 is > 75 µM (inactive); with MDA-MB-435, > 75 µM (inactive); in the experiment with OVCAR-8 it was > 75 µM (inactive); with PC-3 it was 59.6 µM (inactive); with RPMI-8226, 35.4 µM (inactive); in the experiment with SF-268, 27.7 µM (inactive). Also, the GI50 in the experiment on SK-MEL-5 was > 75 µM (inactive); in the experiment with SN12C, 54.2 µM (inactive); in the experiment with SNB-19, > 75 µM (inactive); in the experiment on SR, 26.2 µM (inactive); in the experiment on T47D, 36.1 µM (inactive); with TK-10, 73.1 µM (inactive). Also, the GI50 with U-251 was 35 µM (inactive); in the experiment on UACC-257, > 75 µM (inactive).

On to `NCCCNc1ccc2c(c1)[n+]([O-])c1ccccc1[n+]2[O-]`, for which the GI50 with BT-549 is 13.6 µM (inactive); in the experiment on EKVX, 37.2 µM (inactive); in the experiment on HCT-116, 17.3 µM (inactive); in the experiment with HCT-15 it was 22.9 µM; with LOX IMVI, 7.14 µM (inactive); in the experiment with MCF7, 13.9 µM (inactive). For the same molecule, the GI50 in the experiment on MDA-MB-231 is 19.9 µM (inactive); in the experiment on MDA-MB-435, 31.8 µM (inactive); with OVCAR-8 it was 31.5 µM (inactive); in the experiment with PC-3, 27.4 µM (inactive); in the experiment on RPMI-8226, 17.6 µM (inactive); with SF-268, 27.1 µM (inactive). For the same molecule, the GI50 in the experiment on SK-MEL-5 was 15.2 µM (inactive); with SN12C, 26 µM (inactive); with SNB-19, 28.3 µM (inactive); with SR, 19.1 µM (inactive); in the experiment with T47D, 22.7 µM (inactive); in the experiment with TK-10, 28.4 µM (inactive). Besides, the values for the GI50 in the experiment with U-251 and with UACC-257 were 19.5 µM (inactive) and 27.2 µM (inactive), respectively.

For the molecule `NC1=Nc2ccccc2Sc2nnc(-c3ccc(Cl)cc3)n21`, the GI50 in the experiment with BT-549 is > 100 µM (inactive); in the experiment with EKVX, 75.3 µM (inactive); in the experiment on HCT-116, 9.53 µM (inactive); in the experiment with HCT-15, 7.16 µM; with LOX IMVI, 7.03 µM (inactive); in the experiment with MCF7, > 100 µM (inactive). The GI50 in the experiment on MDA-MB-231 is 21.5 µM (inactive); in the experiment on MDA-MB-435, > 100 µM (inactive); in the experiment on OVCAR-8, 26.7 µM (inactive); in the experiment with PC-3 it was 16.5 µM (inactive); in the experiment on RPMI-8226 it was 87.3 µM (inactive); in the experiment with SF-268, 19.5 µM (inactive). The GI50 with SK-MEL-5 was 68.5 µM (inactive); with SN12C it was 38.1 µM (inactive); with SNB-19, 46.8 µM (inactive); in the experiment with SR, 11.2 µM (inactive); with T47D, > 100 µM (inactive); in the experiment with TK-10 it was 40.8 µM (inactive). The GI50 is 13.7 µM (inactive) in the experiment on U-251 and > 100 µM (inactive) with UACC-257.
